Measured values published in ChEMBL document CHEMBL1149499, “Synthesis and agonist activity of cyclic ADP-ribose analogues with substitution of the northern ribose by ether or alkane chains” (J Med Chem, 2006).
Calls of active or inactive are those of the source. The rule behind the calls is not given here.

Columns and labels:
Format in all cases: functional, cell-based
Settings in all cases: Homo sapiens
Jurkat [1] = assay: Agonist activity against cADPR/RyR assessed as induction of calcium influx in intact jurkat T cells at 500 uM
Jurkat [2] = assay: Antagonist activity against cADPR/RyR assessed as inhibition of anti CD3-stimulated calcium influx in intact jurkat T cells at 500 uM
Jurkat [3] = assay: Induction of calcium flux in single jurkat T cell by confocal calcium imaging experiment at 500 uM

N=c1c2ncn3c2ncn1CCCCOP(=O)(O)OP(=O)(O)OC[C@H]1O[C@@H]3[C@H](O)[C@@H]1O
Activity (Jurkat [1]): Active | Activity (Jurkat [2]): inactive

N=c1c2ncn3c2ncn1CCCCCOP(=O)(O)OP(=O)(O)OC[C@H]1O[C@@H]3[C@H](O)[C@@H]1O
Activity (Jurkat [1]): Active | Activity (Jurkat [2]): inactive

N=c1c2ncn3c2ncn1CCOCCOP(=O)(O)OP(=O)(O)OC[C@H]1O[C@@H]3[C@H](O)[C@@H]1O
Activity (Jurkat [1]): Active | Activity (Jurkat [3]): Active | Activity (Jurkat [2]): inactive
